The values below come from patent US20070155764A1, “NOVEL SUBSTITUTED PYRIMIDINYLOXY UREAS USEFUL AS INHIBITORS OF PROTEIN KINASES” (KALYPSYS, INC., priority 2005, published 2007).

SMILES strings stand for the structures.

What all share (assay type): biochemical
One experiment concerns the target T1, PDGFRβ kinase (Homo sapiens, UniProt P09619).
T1 construct: purchased Invitrogen Inc. P3082
The experiment can be described thus: In vitro PDGFRβ kinase assay. To be noted: ADP Quest assay, poly Glu:Tyr substrate, 60 μM ATP. The method, boiled down:
(§1)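 Compound was preincubated 10 min at ~22 °C with 20 ng VEGFR2 or 25 ng PDGFRβ, then poly Glu:Tyr (4:1) substrate (0.25 μg) with 60 μM ATP (in added buffer) was reacted 2 h at 30 °C. ADP Quest resorufin fluorescence was read (ex 530/em 580) after 30 min. Efficacy is expressed as percent of positive-control (Bay 43-9006) activity, with DMSO as negative control.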

Experiment [1] has as its target T2, human B-Raf protein kinase (Homo sapiens, UniProt P15056).
T2 construct: GST (N); purchased Upstate Inc. 14-530 (B-Raf); 14-420 (Mek1)
The experiment can be described thus: In vitro B-Raf/Mek1 composite kinase assay. To be noted: recombinant GST-tagged human B-Raf (Δ1-415) with inactive Mek1, 2 μM ATP. The method, boiled down: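 Luminescent ATP-depletion assay using recombinant N-terminal GST-tagged human B-Raf (Δ1-415, 1 ng/well) in MOPS pH 7.2 buffer with 10 mM MgCl2. Compounds were preincubated 15 min at about 22° C, then the reaction ran 2 h before PKLight readout. Efficacy is expressed as percentage of positive-control (Bay 43-9006) activity.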

The next experiment deals with T3, VEGFR2 kinase (Homo sapiens, UniProt P35968).
T3 construct: purchased Invitrogen Inc PV3660
T3 sequence (P35968 20-1356): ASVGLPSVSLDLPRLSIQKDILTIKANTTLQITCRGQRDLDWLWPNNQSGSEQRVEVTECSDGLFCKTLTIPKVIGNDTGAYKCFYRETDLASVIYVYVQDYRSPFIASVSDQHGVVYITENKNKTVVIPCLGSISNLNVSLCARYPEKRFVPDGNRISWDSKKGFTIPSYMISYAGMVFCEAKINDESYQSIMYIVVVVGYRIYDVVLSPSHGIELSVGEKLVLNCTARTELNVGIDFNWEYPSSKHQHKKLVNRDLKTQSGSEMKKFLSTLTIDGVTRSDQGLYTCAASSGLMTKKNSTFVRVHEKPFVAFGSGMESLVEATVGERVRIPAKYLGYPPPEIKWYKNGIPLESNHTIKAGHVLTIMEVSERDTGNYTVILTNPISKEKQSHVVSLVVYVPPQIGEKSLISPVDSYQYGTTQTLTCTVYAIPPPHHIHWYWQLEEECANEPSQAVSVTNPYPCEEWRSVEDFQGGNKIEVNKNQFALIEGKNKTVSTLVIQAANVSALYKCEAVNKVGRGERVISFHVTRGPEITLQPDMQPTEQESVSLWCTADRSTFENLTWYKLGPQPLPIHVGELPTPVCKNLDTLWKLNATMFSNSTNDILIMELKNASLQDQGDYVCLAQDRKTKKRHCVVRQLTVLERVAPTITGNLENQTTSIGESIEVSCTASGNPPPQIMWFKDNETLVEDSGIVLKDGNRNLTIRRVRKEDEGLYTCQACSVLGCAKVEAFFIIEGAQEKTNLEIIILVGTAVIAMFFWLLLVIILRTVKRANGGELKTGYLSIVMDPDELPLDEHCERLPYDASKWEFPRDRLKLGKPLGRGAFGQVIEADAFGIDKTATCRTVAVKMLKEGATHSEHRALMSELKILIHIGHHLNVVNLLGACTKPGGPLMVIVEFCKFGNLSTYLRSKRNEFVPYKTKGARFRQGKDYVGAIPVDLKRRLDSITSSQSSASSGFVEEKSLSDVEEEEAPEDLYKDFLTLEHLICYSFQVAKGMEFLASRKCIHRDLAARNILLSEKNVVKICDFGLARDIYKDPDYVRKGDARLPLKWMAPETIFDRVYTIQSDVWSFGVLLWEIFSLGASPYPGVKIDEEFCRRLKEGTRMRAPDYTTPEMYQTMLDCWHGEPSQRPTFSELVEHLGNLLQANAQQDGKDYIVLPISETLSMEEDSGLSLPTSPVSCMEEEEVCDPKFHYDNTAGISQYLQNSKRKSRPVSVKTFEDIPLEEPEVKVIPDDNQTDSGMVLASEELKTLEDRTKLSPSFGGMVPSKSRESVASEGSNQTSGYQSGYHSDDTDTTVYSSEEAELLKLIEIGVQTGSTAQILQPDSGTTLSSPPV
The experiment is described as follows: In vitro VEGFR2 kinase assay. To be noted: ADP Quest assay, poly Glu:Tyr substrate, 60 μM ATP. The procedure, abridged:
as §1

T2 sequence (P15056 416-766): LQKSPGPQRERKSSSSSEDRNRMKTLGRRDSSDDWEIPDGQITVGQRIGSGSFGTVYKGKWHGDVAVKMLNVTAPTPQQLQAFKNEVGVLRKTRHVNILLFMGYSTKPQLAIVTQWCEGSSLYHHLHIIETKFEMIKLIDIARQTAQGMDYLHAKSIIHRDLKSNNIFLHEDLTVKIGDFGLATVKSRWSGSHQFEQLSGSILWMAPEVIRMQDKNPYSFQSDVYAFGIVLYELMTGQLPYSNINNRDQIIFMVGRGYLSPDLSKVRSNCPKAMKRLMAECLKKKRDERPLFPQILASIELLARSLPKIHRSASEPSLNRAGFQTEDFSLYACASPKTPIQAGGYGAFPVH
T1 sequence (P09619 33-1106): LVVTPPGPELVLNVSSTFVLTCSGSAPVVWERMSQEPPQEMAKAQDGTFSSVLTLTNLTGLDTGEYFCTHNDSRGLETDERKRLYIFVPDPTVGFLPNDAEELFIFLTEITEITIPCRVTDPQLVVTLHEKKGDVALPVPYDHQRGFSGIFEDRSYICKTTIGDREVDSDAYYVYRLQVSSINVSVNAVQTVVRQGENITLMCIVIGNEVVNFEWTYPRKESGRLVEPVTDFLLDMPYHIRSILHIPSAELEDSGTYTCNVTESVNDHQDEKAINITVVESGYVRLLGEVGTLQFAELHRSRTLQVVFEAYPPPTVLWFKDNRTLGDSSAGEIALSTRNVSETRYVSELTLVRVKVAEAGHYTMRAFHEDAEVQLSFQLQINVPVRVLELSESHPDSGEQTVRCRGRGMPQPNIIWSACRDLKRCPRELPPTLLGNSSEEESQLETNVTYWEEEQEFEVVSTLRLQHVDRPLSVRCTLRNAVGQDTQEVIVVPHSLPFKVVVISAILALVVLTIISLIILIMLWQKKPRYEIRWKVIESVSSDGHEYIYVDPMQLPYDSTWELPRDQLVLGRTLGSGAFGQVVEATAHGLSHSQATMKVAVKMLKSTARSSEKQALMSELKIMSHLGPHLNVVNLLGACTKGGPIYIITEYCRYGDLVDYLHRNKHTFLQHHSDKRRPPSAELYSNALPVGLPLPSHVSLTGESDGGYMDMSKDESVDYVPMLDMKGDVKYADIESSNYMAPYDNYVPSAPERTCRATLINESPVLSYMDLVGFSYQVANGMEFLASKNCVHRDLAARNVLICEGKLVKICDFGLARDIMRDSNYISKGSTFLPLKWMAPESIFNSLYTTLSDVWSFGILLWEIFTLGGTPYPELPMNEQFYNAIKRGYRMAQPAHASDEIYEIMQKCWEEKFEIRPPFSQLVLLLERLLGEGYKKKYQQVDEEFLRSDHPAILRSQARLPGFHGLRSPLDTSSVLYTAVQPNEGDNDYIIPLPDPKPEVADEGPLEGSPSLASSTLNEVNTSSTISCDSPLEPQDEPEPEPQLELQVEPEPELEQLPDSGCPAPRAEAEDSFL

As to `Cn1cc(-c2nccc(Nc3ccc(NC(=O)Nc4ccc(Cl)c(C(F)(F)F)c4)cc3)n2)cn1` [Example 72, 1-(4-Chloro-3-trifluoromethyl-phenyl)-3-{4-[2-(1-methyl-1H-pyrazol-4-yl)-pyrimidin-4-ylamino]-phenyl}-urea], the 50% inhibitory concentration (IC50) (at PDGFRβ kinase; in experiment [1]; at VEGFR2 kinase) was not above 10 µM throughout.

Turning to `O=C(Nc1ccc(Oc2cc(-c3nc(C(F)(F)F)c[nH]3)ncn2)cc1)Nc1ccc(Cl)c(C(F)(F)F)c1` [Example 73, 1-(4-Chloro-3-(trifluoromethyl)phenyl)-3-(4-(6-(4-(trifluoromethyl)-1H-imidazol-2-yl)pyrimidin-4-yloxy)phenyl)urea], the half-inhibitory concentration (IC50) was not above 10 µM at PDGFRβ kinase, not above 10 µM in experiment [1] and more than 10 µM at VEGFR2 kinase.

Turning to `O=C(Nc1cccc(Oc2cc(-c3nc(C(F)(F)F)c[nH]3)ncn2)c1)Nc1ccc(Cl)c(C(F)(F)F)c1` [Example 74, 1-(4-Chloro-3-(trifluoromethyl)phenyl)-3-(3-(6-(4-(trifluoromethyl)-1H-imidazol-2-yl)pyrimidin-4-yloxy)phenyl)urea], the IC50 is not above 10 µM against PDGFRβ kinase, not above 10 µM in experiment [1] and more than 10 µM against VEGFR2 kinase.

For `COCCOc1ccc(NC(=O)Nc2cc(Oc3ccnc(-c4cnn(C)c4)n3)c(F)cc2F)cc1C(F)(F)F` [Example 75, 1-(2,4-Difluoro-5-(2-(1-methyl-1H-pyrazol-4-yl)pyrimidin-4-yloxy)phenyl)-3-(4-(2-methoxyethoxy)-3-(trifluoromethyl)phenyl)urea], the IC50 (on PDGFRβ kinase; in experiment [1]; against VEGFR2 kinase) was not above 10 µM each time.

Consider `O=C(Nc1ccc(Oc2cc(-c3cnn(CCN4CCOCC4)c3)ncn2)cc1)Nc1ccc(Cl)c(C(F)(F)F)c1` [Example 76, 1-(4-Chloro-3-(trifluoromethyl)phenyl)-3-(4-(6-(1-(2-morpholinoethyl)-1H-pyrazol-4-yl)pyrimidin-4-yloxy)phenyl)urea], for which the IC50 (at PDGFRβ kinase; in experiment [1]; against VEGFR2 kinase) was not above 10 µM in each case.

Take `O=C(Nc1cccc(Oc2cc(-c3cnn(CCN4CCOCC4)c3)ncn2)c1)Nc1ccc(Cl)c(C(F)(F)F)c1` [Example 77, 1-(4-Chloro-3-(trifluoromethyl)phenyl)-3-(3-(6-(1-(2-morpholinoethyl)-1H-pyrazol-4-yl)pyrimidin-4-yloxy)phenyl)urea]: the IC50 (at PDGFRβ kinase; in experiment [1]; against VEGFR2 kinase) was not above 10 µM in each case.

With `Cn1cc(-c2nccc(Oc3ccc(F)c(NC(=O)Nc4ccc(Cl)c(C(F)(F)F)c4)c3)n2)cn1` [Example 78, 1-(4-Chloro-3-(trifluoromethyl)phenyl)-3-(2-fluoro-5-(2-(1-methyl-1H-pyrazol-4-yl)pyrimidin-4-yloxy)phenyl)urea], the IC50 (against PDGFRβ kinase; in experiment [1]; on VEGFR2 kinase) was not above 10 µM throughout.

For the molecule `Cn1cc(-c2nccc(Oc3cccc(NC(=O)Nc4ccc(OC(F)(F)F)cc4)c3)n2)cn1` [Example 79, 1-(3-(2-(1-Methyl-1H-pyrazol-4-yl)pyrimidin-4-yloxy)phenyl)-3-(4-(trifluoromethoxy)phenyl)urea], the IC50 (against PDGFRβ kinase; in experiment [1]; against VEGFR2 kinase) was not above 10 µM throughout.

As for `Cn1cc(-c2nccc(Oc3cccc(NC(=O)Nc4ccc(C(F)(F)F)cc4)c3)n2)cn1` [Example 80, 1-(3-(2-(1-Methyl-1H-pyrazol-4-yl)pyrimidin-4-yloxy)phenyl)-3-(4-(trifluoromethyl)phenyl)urea], the IC50 (on PDGFRβ kinase; in experiment [1]; against VEGFR2 kinase) was not above 10 µM in each case.

Turning to `CCOC(=O)c1coc(-c2cc(Oc3cccc(NC(=O)Nc4ccc(Cl)c(C(F)(F)F)c4)c3)ncn2)n1` [Example 81, Ethyl 2-(6-(3-(3-(4-chloro-3-(trifluoromethyl)phenyl)ureido)phenoxy)pyrimidin-4-yl)oxazole-4-carboxylate], the IC50 (against PDGFRβ kinase; in experiment [1]; against VEGFR2 kinase) was not above 10 µM throughout.

Regarding `NC(=O)c1coc(-c2cc(Oc3cccc(NC(=O)Nc4ccc(Cl)c(C(F)(F)F)c4)c3)ncn2)n1` [Example 82, 2-(6-(3-(3-(4-Chloro-3-(trifluoromethyl)phenyl)ureido)phenoxy)pyrimidin-4-yl)oxazole-4-carboxamide], the IC50 (against PDGFRβ kinase; in experiment [1]; at VEGFR2 kinase) was not above 10 µM throughout.

In the case of `Cn1cc(-c2nccc(Oc3cccc(NC(=O)Nc4cccc(OC(F)(F)F)c4)c3)n2)cn1` [Example 83, 1-(3-(2-(1-Methyl-1H-pyrazol-4-yl)pyrimidin-4-yloxy)phenyl)-3-(3-(trifluoromethoxy)phenyl)urea], the 50% inhibitory concentration (IC50) (at PDGFRβ kinase; in experiment [1]; on VEGFR2 kinase) was not above 10 µM throughout.

`Cn1cc(-c2nccc(Oc3cccc(NC(=O)Nc4cc(C(F)(F)F)cc(C(F)(F)F)c4)c3)n2)cn1` [Example 84, 1-(3,5-Bis(trifluoromethyl)phenyl)-3-(3-(2-(1-methyl-1H-pyrazol-4-yl)pyrimidin-4-yloxy)phenyl)urea]: the IC50 (on PDGFRβ kinase; in experiment [1]; at VEGFR2 kinase) was not above 10 µM each time.

With `O=C(Nc1cccc(Oc2cc(-c3ncc[nH]3)ncn2)c1)Nc1ccc(Cl)c(C(F)(F)F)c1` [Example 85, 1-(3-(6-(1H-Imidazol-2-yl)pyrimidin-4-yloxy)phenyl)-3-(4-chloro-3-(trifluoromethyl)phenyl)urea], the half-inhibitory concentration (IC50) (on PDGFRβ kinase; in experiment [1]; against VEGFR2 kinase) was not above 10 µM each time.

With `C#Cc1cccc(NC(=O)Nc2cccc(Oc3cc(-c4cnn(C)c4)ncn3)c2)c1` [Example 86, 1-(3-Ethynylphenyl)-3-(3-(6-(1-methyl-1H-pyrazol-4-yl)pyrimidin-4-yloxy)phenyl)urea], the IC50 (at PDGFRβ kinase; in experiment [1]; against VEGFR2 kinase) was not above 10 µM in each case.

For `Cn1cc(-c2nccc(Oc3ccc(NC(=O)Nc4ccc(Cl)c(C(F)(F)F)c4)c(F)c3)n2)cn1` [Example 88, 1-(4-Chloro-3-(trifluoromethyl)phenyl)-3-(2-fluoro-4-(2-(1-methyl-1H-pyrazol-4-yl)pyrimidin-4-yloxy)phenyl)urea], the IC50 (against PDGFRβ kinase; in experiment [1]; at VEGFR2 kinase) was not above 10 µM each time.

Regarding `O=C(Nc1ccc(C(F)(F)F)cc1)Nc1cccc(Oc2cc(-c3nnco3)ncn2)c1` [Example 89, 1-(3-(6-(1,3,4-Oxadiazol-2-yl)pyrimidin-4-yloxy)phenyl)-3-(4-(trifluoromethyl)phenyl)urea], the IC50 (on PDGFRβ kinase; in experiment [1]; on VEGFR2 kinase) was not above 10 µM in each case.

Regarding `Cn1cc(-c2cc(Oc3ccc(F)c(NC(=O)Nc4ccc(C(F)(F)F)cc4F)c3)ncn2)cn1` [Example 90, 1-(2-Fluoro-4-(trifluoromethyl)phenyl)-3-(2-fluoro-5-(6-(1-methyl-1H-pyrazol-4-yl)pyrimidin-4-yloxy)phenyl)urea], the IC50 (against PDGFRβ kinase; in experiment [1]; against VEGFR2 kinase) was not above 10 µM in each case.

On to `Cn1cc(-c2cc(Oc3cccc(NC(=O)Nc4ccc(C(F)(F)F)cc4F)c3)ncn2)cn1` [Example 91, 1-(2-Fluoro-4-(trifluoromethyl)phenyl)-3-(3-(6-(1-methyl-1H-pyrazol-4-yl)pyrimidin-4-yloxy)phenyl)urea], for which the IC50 (at PDGFRβ kinase; in experiment [1]; against VEGFR2 kinase) was not above 10 µM throughout.

Take `Cn1cc(-c2cc(Oc3ccc(NC(=O)Nc4ccc(Cl)c(C(F)(F)F)c4)c(F)c3)ncn2)cn1` [Example 92, 1-(4-Chloro-3-(trifluoromethyl)phenyl)-3-(2-fluoro-4-(6-(1-methyl-1H-pyrazol-4-yl)pyrimidin-4-yloxy)phenyl)urea]: the IC50 (against PDGFRβ kinase; in experiment [1]; on VEGFR2 kinase) was not above 10 µM in each case.

As to `Cn1cc(-c2nccc(Oc3ccc(NC(=O)Nc4cccc(C(F)(F)F)c4)c(F)c3)n2)cn1` [Example 93, 1-(2-Fluoro-4-(2-(1-methyl-1H-pyrazol-4-yl)pyrimidin-4-yloxy)phenyl)-3-(3-(trifluoromethyl)phenyl)urea], the half-inhibitory concentration (IC50) (against PDGFRβ kinase; in experiment [1]; on VEGFR2 kinase) was not above 10 µM throughout.

As to `COc1ccc(C(F)(F)F)cc1NC(=O)Nc1cccc(Oc2cc(-c3cnn(C)c3)ncn2)c1` [Example 94, 1-(2-Methoxy-5-(trifluoromethyl)phenyl)-3-(3-(6-(1-methyl-1H-pyrazol-4-yl)pyrimidin-4-yloxy)phenyl)urea], the IC50 (against PDGFRβ kinase; in experiment [1]; on VEGFR2 kinase) was not above 10 µM in each case.

As to `COc1ccc(C(F)(F)F)cc1NC(=O)Nc1cc(Oc2cc(-c3cnn(C)c3)ncn2)ccc1F` [Example 95, 1-(2-Fluoro-5-(6-(1-methyl-1H-pyrazol-4-yl)pyrimidin-4-yloxy)phenyl)-3-(2-methoxy-5-(trifluoromethyl)phenyl)urea], the 50% inhibitory concentration (IC50) (on PDGFRβ kinase; in experiment [1]; at VEGFR2 kinase) was not above 10 µM each time.

For `Cn1cc(-c2cc(Oc3cccc(NC(=O)Nc4ccc(C(F)(F)F)cc4Cl)c3)ncn2)cn1` [Example 96, 1-(2-Chloro-4-(trifluoromethyl)phenyl)-3-(3-(6-(1-methyl-1H-pyrazol-4-yl)pyrimidin-4-yloxy)phenyl)urea], the IC50 (against PDGFRβ kinase; in experiment [1]; on VEGFR2 kinase) was not above 10 µM throughout.

As usually defined, the IC50 is the concentration needed to halve the response being measured.
